Laboratory results reported in US20240024403A1, “Compositions and Methods for Managing Weight” (Unigen, Inc., priority 2012, published 2024).
pEC50, pIC50: −log10 of the molar value. Where two headings read alike, the source gives them in different places.

Columns and labels:
human CB1 receptor [1] = molecular target: T1, human CB1 receptor (Homo sapiens (Human), UniProt P21554); experiment: CB1 Agonist Effect GPCR Functional Assay (cAMP); assay type: cell-based
Procedure: (§1) In vitro efficacy and CB1 binding specificity of compounds isolated from Morus alba and Milicia excelsa were tested in the human CB1 receptor binding assay, and the agonist or antagonist function of the compounds was determined by measuring the effect on cAMP or agonist-induced cAMP modulation.
(§2) Following a 10 minute incubation at 37° C., the cells are lysed and the fluorescence acceptor (D2-labeled cAMP) and fluorescence donor (anti-cAMP antibody labeled with europium cryptate) were added. After 60 min at room temperature, the fluorescence transfer is measured at λex=337 nm and λem=620 nm and 665 nm using a microplate reader (Rubystar, BMG). The cAMP concentration is determined by dividing the signal measured at 665 nm by that measured at 620 nm (ratio).

human CB1 receptor [2] = molecular target: T1, human CB1 receptor; experiment: CB1 receptor binding assay ([3H] SR141716A); conditions: for CB1 selectivity over CB2: from CB1 and CB2 IC50; for inhibition at 20 µg/mL: read-out: % Inhibition CB1-Binding
Procedure: Cannabinoid receptor binding assays were used as a primary screening method to identify CB1 antagonist compounds. […] Briefly, human cannabinoid receptor protein bound to Chem-1 membrane was used in modified HEPES (pH 7.4) buffer. A 10 microgram (μg) aliquot of Chem-1 membrane, radioactively labeled [^3H] […] After incubation, the membranes were filtered and washed four times and then the filters were counted to determine amount of [^3H]

[3] = molecular target: human cannabinoid CB2 receptor protein (Homo sapiens (Human), UniProt P34972); experiment: CB2 receptor-ligand binding assay ([3H] WIN-55,212-2)
Chain of human cannabinoid CB2 receptor protein (P34972 whole entry): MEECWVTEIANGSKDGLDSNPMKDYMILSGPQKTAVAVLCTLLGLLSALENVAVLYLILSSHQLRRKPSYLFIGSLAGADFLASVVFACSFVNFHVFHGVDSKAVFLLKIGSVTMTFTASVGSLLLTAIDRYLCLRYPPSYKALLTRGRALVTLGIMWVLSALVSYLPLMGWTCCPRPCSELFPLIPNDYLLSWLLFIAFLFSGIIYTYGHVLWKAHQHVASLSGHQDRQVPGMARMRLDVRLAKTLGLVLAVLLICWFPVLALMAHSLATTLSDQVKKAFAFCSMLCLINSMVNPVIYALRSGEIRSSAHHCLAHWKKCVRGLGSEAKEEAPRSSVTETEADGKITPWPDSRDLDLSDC
Procedure: Briefly, human cannabinoid CB2 receptor protein expressed in CHO-K1 cells were used in modified HEPES buffer (pH 7.0). A 30 μg aliquot of CB2-membrane was mixed with tritium labeled nonspecific CB1 agonist [3H] WIN-55,212-2 (2.4 nM) and test samples of Kuwanon G and Albanin G compounds, or just the nonspecific ligand R (+)-WIN-55,212-2 (10 μM) (positive control) were incubated in incubation buffer (20 mM HEPES (pH 7.0), 0.5 mg/ml BSA) for 90 minutes at 37° C. After incubation, the membranes were filtered and washed; the filters were then counted to determine the amount of radiolabeled [^3H] WIN-55,212-2 that was specifically bound to the CB2-membrane.

human CB1 receptor [4] = molecular target: T1, human CB1 receptor; experiment: CB1 Antagonist Effect GPCR Functional Assay (cAMP); assay type: cell-based; conditions: for inhibition at 100 µM: read-out: CB1 Antagonist Inhibition
Procedure: as §1
as §2, with “Following” for “Following a”, “min” for “minute”, “are” for “were”

Rice α-glucosidase = experiment: Rice α-Glucosidase inhibition assay; assay type: biochemical; conditions: 100 μg/ml
Procedure: Inhibition of rice α-glucosidase activity by each of the purified Kuwanon G and Albanin G compounds was measured as follows. […] The reaction was initiated with addition of 2 mM p-nitrophenyl a-D-glucopyanoside, incubated for another 90 minute at 70° C., and then terminated by adding of 1 M sodium carbonate. The end-product p-nitrophenol was measured by spectrophotometer.

3T3-L1 adipocytes [5] = experiment: Lipolysis (free glycerol released) in mature 3T3-L1 adipocytes; assay type: cell-based, Mouse; conditions: 10 μM
Procedure: Isoproterenol (10 μM) was used as a positive control. The conditioned medium was recovered and free glycerol released was assayed by using a lipolysis assay kit (Sigma-Aldrich Inc., USA) following the manufacturer's instructions.

3T3-L1 adipocytes [6] = experiment: Lipid accumulation in 3T3-L1 adipocytes (Oil-Red O); assay type: cell-based, Mouse; conditions: 10 ng/ml
Procedure: Briefly, 3T3 L1cells (American Type Culture Collection) were cultured in Dulbecco's modified Eagle's medium (DMEM) (GIBCO) containing 10% bovine calf serum until confluent. Two days post-confluence (DO), cells were stimulated to differentiate with DMEM containing 10% fetal bovine serum (FBS), 5 μg/ml insulin, 0.5 mM 3-isobutyl-1-methylxanthine (IBMX) and 1 μM dexamethasone for two days (D2).
Differentiated cells were then maintained in 10% FBS/DMEM medium with 5 μg/ml insulin for another two days (D4), followed by culturing with 10% FBS/DMEM medium for four days (D8).
To examine lipid accumulation, four different concentrations of Composition 3 (40, 80, 120 and 160 ug/ml) were tested with medium from Days 0 to 8 of adipogenesis. The culture medium was replaced every two days, and the cells were stained with Oil-Red O on Day 8.

3T3-L1 cells = experiment: Intracellular triglyceride accumulation in differentiating 3T3-L1 cells; assay type: cell-based, Mouse; conditions: 10 ng/ml; 8 days differentiation
Procedure: The cells were washed with PBS, scraped with homogenizing solution, residual cell lysate was centrifuged at 3,000 g for 5 minutes to remove fat layers, and the supernatants were assayed for triglyceride levels.

T1 sequence (P21554 whole entry): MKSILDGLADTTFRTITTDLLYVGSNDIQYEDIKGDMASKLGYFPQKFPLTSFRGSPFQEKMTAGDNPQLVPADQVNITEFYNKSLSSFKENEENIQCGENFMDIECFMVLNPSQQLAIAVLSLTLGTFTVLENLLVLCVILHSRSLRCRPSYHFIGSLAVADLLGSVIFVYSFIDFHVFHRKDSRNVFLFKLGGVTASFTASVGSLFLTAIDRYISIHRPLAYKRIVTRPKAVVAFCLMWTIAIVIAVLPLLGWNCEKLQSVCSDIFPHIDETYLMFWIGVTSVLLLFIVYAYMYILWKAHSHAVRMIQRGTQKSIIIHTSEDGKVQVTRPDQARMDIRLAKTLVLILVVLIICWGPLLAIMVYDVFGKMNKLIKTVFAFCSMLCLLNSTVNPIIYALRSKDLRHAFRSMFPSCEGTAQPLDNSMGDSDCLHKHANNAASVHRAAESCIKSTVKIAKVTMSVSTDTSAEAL
Procedure for DPPH anti-oxidation test: The DPPH radical has a violet color in solution, but changes to light yellow or colorless when reduced to DPPH-H (2,2-diphenyl-1-picrylhydrazin) after reaction with free radicals. The color change can be followed spectrophotometrically at 517 nm to determine the anti-oxidative potential of a composition. Briefly, a 0.2 mM solution of DPPH in DMSO was mixed with each test sample at concentrations of 20, 40, 80 and 160 μg/ml. Ascorbic acid was used as a positive control. After a 30 minute incubation in the dark, the color change (i.e., decrease in absorbance) was measured at 517 nm in a spectrophotometer.

## CC(C)=CCC12Oc3c(c(O)cc(O)c3C3C=C(C)CC(c4ccc(O)cc4O)C3C(=O)c3ccc(O)cc3O)C(=O)C1(O)Oc1cc(O)ccc12 (centres unmarked) [Sanggenon, Sanggenon C/D/]
Human CB1 receptor [1]
  CB1 receptor functional behavior (agonist): agonist-like behavior instead of antagonist
  pEC50: 4.51
Human CB1 receptor [2]
  pIC50: 5.46
  CB1 selectivity over CB2: CB1 selectivity over the CB2 receptor protein
  inhibition at 20 µg/mL: 96%
[3]
  pIC50: 4.62
Human CB1 receptor [4]
  inhibition at 100 µM: -14%

## CC(C)=CCc1c(-c2ccc(O)cc2O)oc2c(C3C=C(C)CC(c4ccc(O)cc4O)C3C(=O)c3ccc(O)cc3O)c(O)cc(O)c2c1=O (centres unmarked) [Kuwanon G]
Rice α-glucosidase
  % Inhibition Rice α-glucosidase: −22%
Human CB1 receptor [1]
  CB1 receptor functional behavior (agonist): agonist-like behavior instead of antagonist
  pEC50: 4.07
Human CB1 receptor [2]
  pIC50: 5.00
  CB1 selectivity over CB2: CB1 selective inhibitors
Human CB1 receptor [2]; 20 μg/ml
  % Inhibition CB1-Binding: 92%
[3]
  pIC50: 4.54
Human CB1 receptor [4]; at 100 μM
  CB1 Antagonist Inhibition: −1%

## CC(C)=CCc1c(O)ccc(C(=O)C2C(c3c(O)cc(O)c4c(=O)c(CC=C(C)C)c(-c5ccc(O)cc5O)oc34)C=C(C)CC2c2ccc(O)cc2O)c1O (centres unmarked) [Albanin G]
Rice α-glucosidase
  % Inhibition Rice α-glucosidase: 66%
Human CB1 receptor [2]
  pIC50: 7.00
  CB1 selectivity over CB2: CB1 selective inhibitors
Human CB1 receptor [2]; 20 μg/ml
  inhibition at 20 µg/mL: 96%
[3]
  pIC50: 5.18
Human CB1 receptor [4]
  CB1 receptor functional behavior (antagonist): modest antagonist-like activity
Human CB1 receptor [4]; at 100 μM
  inhibition at 100 µM: 17%

## CC(C)NCC(O)c1ccc(O)c(O)c1 (centres unmarked) [Isoproterenol]
3T3-L1 adipocytes [5]; 24 hrs
  Lipolysis, % of Control: 464.2 % of Control
3T3-L1 adipocytes [5]; 48 hrs
  Lipolysis, % of Control: 525.0 % of Control

## TNF-α
3T3-L1 adipocytes [6]; Table 159, Oil-Red O Day 8
  Inhibition (%) of lipid accumulation: 61.0%
3T3-L1 adipocytes [6]; Table 160
  Inhibition (%) of lipid accumulation: 68.9%
3T3-L1 adipocytes [6]; Table 161
  Inhibition (%) of lipid accumulation: 74.1 ± 6.06%
3T3-L1 cells
  Inhibition (%) of intracellular triglyceride accumulation: 19.4%

## O=C1O[C@H]([C@@H](O)CO)C(O)=C1O [Ascorbic acid]
DPPH anti-oxidation test; 20 μg/ml
  DPPH Inhibition (%): 50.8 ± 0.83%
DPPH anti-oxidation test; 40 μg/ml
  DPPH Inhibition (%): 53.6 ± 1.72%
DPPH anti-oxidation test; 80 μg/ml
  DPPH Inhibition (%): 64.2 ± 0.86%
DPPH anti-oxidation test; 160 μg/ml
  DPPH Inhibition (%): 76.6 ± 0.30%
